Assay results reported in patent publication US7846936B2, “Combinations for the treatment of diseases involving cell proliferation, migration or apoptosis of myeloma cells or angiogenesis” (Boehringer Ingelheim International GmbH, priority 2003, dated 2010).

How the values were obtained:
[1] = clinically tested, also in conjunction with chemotherapy; cited from earlier work
[2] = system: SKOV-3 cells (human ovarian carcinoma); assay: SKOV-3 xenograft combination experiment; format: in vivo, nude mice (NMRI nu/nu); conditions: SKOV-3 tumours in nude mice, 15 mg/kg daily per os, day 31
Protocol: The following experiment was performed in order to investigate the effect of a combination therapy with suboptimal doses of an antagonist of at least one receptor selected from VEGFR 1 to 3, PDGFRα and β, FGFR1, 2 and 3, EGFR, HER2, IGF1R, HGFR or c-Kit, which is further an antagonist of a src tyrosine kinase family member, namely the di-chloride salt of (Z)-3-(1-(4-(N-((4-methyl-piperazin-1-yl)-methylcarbonyl)-N-methyl-amino)-phenylamino)-1-phenyl-methylene]-6-methoxycarbonyl-2-indolinone (compound referred to as C12(T)), which is the di-chloride salt of above exemplified compound (T), and a dual antagonist of the epidermal growth factor (EGF) receptor and of the human epidermal growth factor of type 2 (HE type 2) receptor, namely the compound 4-[(3-chloro-4-fluorophenyl)amino]-6-{[4-(N,N-dimethylamino)-1-oxo-2-buten-1-yl]amino}-7-((S)-tetrahydrofuran-3-yloxy)-quinazoline, (compound referred to as EGFR/HER2 inh., and described in WO 02/50043 as exemplified compound of Example 1(10)), on the reduction of tumour growth, in comparison to the mono-therapies at the same doses. […]
Daily per os treatment was initially performed for 31 days. […] The calculated treated tumour to control tumour (T/C) ratio at this time point was 35% for the group treated with 15 mg/kg EGFR/HER2 inh., 32% for the group treated with 50 mg/kg C12(T), and 13% for the group treated with the combination. […]

[3] = system: IL-6 secretion by BMSC cells; assay: IL-6 secretion by bone marrow stromal cells (Table II); format: cell-based
[4] = system: FaDu tumours (human squamous carcinoma cells); assay: in vivo xenograft experiment, subcutaneous FaDu tumours; conditions: nude mice, 100 mg/kg orally twice weekly
Protocol: By increasing the dose to 200 mg/kg orally twice weekly an even better anti-tumour effect is expected.

CDK2 = CDK2 (Homo sapiens, UniProt P24941); assay: kinase inhibition panel (Table I); format: biochemical
[5] = system: IL-6 secretion by BMSC cells; assay: IL-6 secretion by bone marrow stromal cells (Table II); format: cell-based; remark: listed apart in the source
Description: For comparison, the inhibition effect with inhibition of anti-bFGF (+anti-bFGF), anti-VEGF (+anti-VEGF) and a combination of anti-bFGF and anti-VEGF (+anti-VEGF+anti-bFGF) were also investigated.

[6] = system: IL-6 secretion by BMSC mono-cultures; assay: IL-6 secretion of BMSC mono-cultures (Table III); format: cell-based
Description: (§1) For comparison, the inhibition effect on BMSC mono-cultures (native) and, as control, the level of secretion of U266 mono-cultures, were also investigated.

Lyn = Lyn (Homo sapiens, UniProt P07948); assay: kinase inhibition panel (Table I); format: biochemical
Lyn, sequence (P07948 whole entry, species assumed): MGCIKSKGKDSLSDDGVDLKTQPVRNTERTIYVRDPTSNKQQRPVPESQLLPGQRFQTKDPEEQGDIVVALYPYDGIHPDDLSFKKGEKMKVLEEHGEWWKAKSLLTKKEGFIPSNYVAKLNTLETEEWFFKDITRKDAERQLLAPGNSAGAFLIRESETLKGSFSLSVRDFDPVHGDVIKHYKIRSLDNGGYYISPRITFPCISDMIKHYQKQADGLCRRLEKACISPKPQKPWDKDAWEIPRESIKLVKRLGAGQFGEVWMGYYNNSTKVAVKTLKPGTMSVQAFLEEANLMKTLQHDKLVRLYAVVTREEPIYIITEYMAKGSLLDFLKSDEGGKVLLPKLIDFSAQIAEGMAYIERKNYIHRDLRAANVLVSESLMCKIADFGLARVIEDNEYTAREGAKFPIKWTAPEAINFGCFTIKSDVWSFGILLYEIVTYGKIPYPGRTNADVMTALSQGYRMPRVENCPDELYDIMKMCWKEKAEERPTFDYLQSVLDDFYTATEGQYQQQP

oral bioavailability = format: in vivo; conditions: mice
[7] = system: IL-6 secretion in U-266 + BMSC co-cultures; assay: IL-6 secretion in transwell and contact co-cultures of U-266 myeloma cells and BMSC cells (Table III); format: cell-based
Description: as §1

[8] = system: t(14;16) MM1.s myeloma cells; assay: apoptosis of myeloma cells; format: cell-based
cell lines with t(4;14) = assay: apoptosis on cell lines with t(4;14); format: cell-based; conditions: in vitro

Cc1cc(C)c(/C=C2\C(=O)Nc3ccccc32)[nH]1 [SU5416]
side effect in clinical testing [1]: thromboembolic events

CN(C)CC=CC(=O)Nc1cc2c(Nc3ccc(F)c(Cl)c3)ncnc2cc1O[C@H]1CCOC1 [EGFR/HER2 inh., 4-[(3-chloro-4-fluorophenyl)amino]-6-{[4-(N,N-dimethylamino)-1-oxo-2-buten-1-yl]amino}-7-((S)-tetrahydrofuran-3-yloxy)-quinazoline]
treated tumour to control tumour (T/C) ratio [2]: 35%

CCS(=O)(=O)O.COC(=O)c1ccc2c(c1)NC(=O)/C2=C(\Nc1ccc(N(C)C(=O)CN2CCN(C)CC2)cc1)c1ccccc1 [MES(T), monoethanesulfonate salt of 3-Z-[1-(4-(N-((4-methyl-piperazin-1-yl)-methylcarbonyl)-N-methyl-amino)-anilino)-1-phenyl-methylene]-6-methoxycarbonyl-2-indolinone]
IL-6 secretion by BMSC cells ([3]; +VEGF, MES(T) 10 nM): 122.3 | IL-6 secretion by BMSC cells ([3]; +VEGF, MES(T) 50 nM): 130.7 | IL-6 secretion by BMSC cells ([3]; +VEGF, MES(T) 125 nM): 141.0 | IL-6 secretion by BMSC cells ([3]; +VEGF, MES(T) 250 nM): 65.5 | IL-6 secretion by BMSC cells ([3]; +VEGF, MES(T) 500 nM): 14.8 | IL-6 secretion by BMSC cells ([3]; +anti-VEGF + anti-bFGF, MES(T) 10 nM): 68.1 | IL-6 secretion by BMSC cells ([3]; +anti-VEGF + anti-bFGF, MES(T) 50 nM): 63.4 | IL-6 secretion by BMSC cells ([3]; +anti-VEGF + anti-bFGF, MES(T) 125 nM): 86.1 | IL-6 secretion by BMSC cells ([3]; +anti-VEGF, MES(T) 10 nM): 148.6 | IL-6 secretion by BMSC cells ([3]; +anti-VEGF, MES(T) 50 nM): 155.2 | IL-6 secretion by BMSC cells ([3]; +anti-VEGF, MES(T) 125 nM): 166.7 | IL-6 secretion by BMSC cells ([3]; +anti-VEGF, MES(T) 250 nM): 89.4 | IL-6 secretion by BMSC cells ([3]; +anti-VEGF, MES(T) 500 nM): 16.2 | IL-6 secretion by BMSC cells ([3]; +anti-bFGF, MES(T) 10 nM): 68.9 | IL-6 secretion by BMSC cells ([3]; +anti-bFGF, MES(T) 500 nM): 20.2 | IL-6 secretion by BMSC cells ([3]; +bFGF, MES(T) 10 nM): 150.5 | IL-6 secretion by BMSC cells ([3]; +bFGF, MES(T) 50 nM): 179.7 | IL-6 secretion by BMSC cells ([3]; +bFGF, MES(T) 125 nM): 91.2 | IL-6 secretion by BMSC cells ([3]; +bFGF, MES(T) 250 nM): 76.9 | IL-6 secretion by BMSC cells ([3]; +bFGF, MES(T) 500 nM): 43.4 | IL-6 secretion by BMSC cells ([3]; native, MES(T) 10 nM): 130.2 | IL-6 secretion by BMSC cells ([3]; native, MES(T) 50 nM): 170.4 | IL-6 secretion by BMSC cells ([3]; native, MES(T) 125 nM): 97.5 | IL-6 secretion by BMSC cells ([3]; native, MES(T) 250 nM): 76.5 | IL-6 secretion by BMSC cells ([3]; native, MES(T) 500 nM): 39.6 | T/C (Tumour/Control) value [4]: 31% | IC50 (CDK2): > 10 µM | IL-6 secretion by BMSC cells ([5]; +anti-VEGF + anti-bFGF, MES(T) 250 nM): 45.0 | IL-6 secretion by BMSC cells ([5]; +anti-VEGF + anti-bFGF, MES(T) 500 nM): 13.5 | IL-6 secretion by BMSC cells ([5]; +anti-bFGF, MES(T) 50 nM): 81.3 | IL-6 secretion by BMSC cells ([5]; +anti-bFGF, MES(T) 125 nM): 42.4 | IL-6 secretion by BMSC cells ([5]; +anti-bFGF, MES(T) 250 nM): 33.0 | IL-6 secretion, BMSC mono-cultures ([6]; MES(T) 50 nM): 213.4 | IL-6 secretion, BMSC mono-cultures ([6]; MES(T) 125 nM): 192.1 | IL-6 secretion, BMSC mono-cultures ([6]; MES(T) 250 nM): 69.9 | IL-6 secretion, BMSC mono-cultures ([6]; MES(T) 500 nM): 38.6 | IC50 (Lyn): 0.195 µM | oral bioavailability (oral bioavailability): orally bioavailable | IL-6 secretion, Contact U-266 + BMSC co-cultures ([7]; MES(T) 125 nM): 259.6 | IL-6 secretion, Contact U-266 + BMSC co-cultures ([7]; MES(T) 250 nM): 199.4 | IL-6 secretion, Contact U-266 + BMSC co-cultures ([7]; MES(T) 500 nM): 114.7 | effect on IL-6 secretion of BMSC cultures stimulated by myeloma cells ([7]; transwell and contact co-cultures): decrease to its basal (native) value the level of IL-6 secretion | IL-6 secretion, Transwell U-266 + BMSC co-cultures ([7]; MES(T) 50 nM): 354.5 | IL-6 secretion, Transwell U-266 + BMSC co-cultures ([7]; MES(T) 125 nM): 297.6 | IL-6 secretion, Transwell U-266 + BMSC co-cultures ([7]; MES(T) 250 nM): 231.1 | IL-6 secretion, Transwell U-266 + BMSC co-cultures ([7]; MES(T) 500 nM): 123.9 | effect on dexamethasone-induced apoptosis ([8]; combined with dexamethasone): enhances the apoptosis induced by dexamethasone | apoptosis of myeloma cells ([8]; t(14;16) MM1.s myeloma cells, MES(T) alone): pro-apoptotic effects | apoptosis on cell lines with t(4;14) (cell lines with t(4;14)): Direct induction of apoptosis
